Patent US6545131B1, “Tissue specific prodrug” (priority 1997, dated 2003)
Starred links: 1 amine or outer side, 2 acyl side, 3 side chain; linkers in the order of their positions; H or OH if unused. Residues, ends and D or L forms follow the SMILES beside them. *: point of attachment. AMC = Cc1cc(=O)oc2cc(N*)ccc12; Morpholide = C1CN(*)CCO1; CO = O=C([*:1])[*:2]

Experiments:
Plasmin = target: T1, Plasmin (Homo sapiens, UniProt P00747); experiment: Peptide-AMC cleavage by purified extracellular protease; assay type: biochemical; settings: 0.2 mM substrate, PSA assay buffer pH 7.8
T1 construct: purchased Calbiochem
T1 sequence (P00747 581-810 limits assumed, species assumed): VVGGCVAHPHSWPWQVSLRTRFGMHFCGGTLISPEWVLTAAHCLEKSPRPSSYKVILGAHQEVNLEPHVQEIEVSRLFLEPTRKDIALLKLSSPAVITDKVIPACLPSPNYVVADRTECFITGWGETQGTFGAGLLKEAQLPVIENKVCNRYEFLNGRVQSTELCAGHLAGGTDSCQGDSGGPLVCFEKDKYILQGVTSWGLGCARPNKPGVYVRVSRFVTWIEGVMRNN
T1 sequence (P00747 97-580 partner limits assumed, species assumed): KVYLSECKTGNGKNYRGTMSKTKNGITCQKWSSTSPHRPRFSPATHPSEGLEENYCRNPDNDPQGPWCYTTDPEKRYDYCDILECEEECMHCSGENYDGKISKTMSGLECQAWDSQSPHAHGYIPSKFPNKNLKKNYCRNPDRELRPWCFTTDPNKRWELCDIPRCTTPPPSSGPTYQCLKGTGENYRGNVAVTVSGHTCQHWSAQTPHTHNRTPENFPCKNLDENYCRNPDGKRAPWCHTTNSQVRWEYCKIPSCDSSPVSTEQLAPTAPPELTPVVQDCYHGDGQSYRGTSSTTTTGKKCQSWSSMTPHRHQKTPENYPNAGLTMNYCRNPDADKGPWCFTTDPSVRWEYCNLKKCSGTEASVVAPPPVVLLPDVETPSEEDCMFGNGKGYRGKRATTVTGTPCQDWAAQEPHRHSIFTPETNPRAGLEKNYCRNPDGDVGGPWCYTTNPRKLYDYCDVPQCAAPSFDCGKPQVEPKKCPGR
Method: (§1) The peptides discussed herein were custom synthesized by Enzyme Systems Products (Dublin, Calif.) and, after HPLC separation and purification to >95%, the molecular weights were confirmed by mass spectroscopy. All peptides had morpholinocarbonyl protecting the amino terminus and 7-amino-4-methylcoumarin (AMC) attached via an amide bond to the carboxyl group of the carboxy-terminal amino acid. Peptides were first dissolved in distilled water (5 mM) and then diluted into PSA assay buffer (50 mM Tris/0.1M NaCl pH 7.8). The glutamine-AMC peptide had the amino terminus and side chain amine unprotected and was obtained from Bachem (Torrance, Calif.).
(§2) PSA was purified from human seminal plasma as described in Christensson, et al. Eur. J. Biochem. 194:755-765, (1990). Plasmin, urokinase, tissue plasminogen activator (TPA), human plasma and porcine pancreatic kallikrein and a 1-antichymotrypsin were obtained from Calbiochem (San Diego, Calif.). All other proteases were obtained from Sigma Chemical Co. (St. Louis, Mo.). Mouse serum was obtained from East Acres Biologicals (South Bridge, Mass.). Goat and calf sera were obtained from Gibco BRL (Grand Island, N.Y.). Rat serum was obtained in-house from sacrificed animals. Human serum was obtained from volunteers.
(§3) Cleavage was studied by measuring fluorescence change secondary to AMC release. Fluorescence detection was carried out with a Fluoroskan II 96 well fluorometric plate reader (ICN Biomedicals, Costa Mesa, Calif.), with excitation wavelength 355 nm and emission wavelength 460 nm. Data were collected and analyzed using Deltasoft III software (Biometallics, Princeton, N.J.). All reactions were performed at room temperature by the addition of substrate and proteases into PSA buffer, described below, in a final volume of 200 μL. The results were determined from the initial linear increase of fluorescence and were expressed as the picomoles of AMC released per minute based upon comparison to a standard curve of the fluorescence of known amounts of AMC (i.e., fluorescence was linear form 20 to 300 picomoles of AMC). The data were analyzed by Lineweaver-Burke reciprocal plots to determine the Michaelis-Menten constant (i.e., Km) expressed as the amount of substrate needed to saturate half of the enzyme and the catalytic rate constant (i.e., kcat) expressed as the amount of substrate converted to product per time per amount of enzyme.
(§4) Each assay contains 200 picomoles of the particular protease and 0.2 mM concentration of the particular substrate (i.e., 40,000 picomoles/200 μL of assay volume). The amino acid sequences expressed in one letter amino acid code represent the following amino acid sequences in the three letter amino acid code: EHSSKLQ (Glu-His-Ser-Ser-Lys-Leu-Gln; SEQ ID NO:10), QNKISYQ (Gln-Asn-Lys-Ile-Ser-Tyr-Gln; SEQ ID NO:11), ENKISYQ (Glu-Asn-Lys-Ile-Ser-Tyr-Gln; SEQ ID NO:12), and ATKSKQH (Ala-Thr-Lys-Ser-Lys-Gln-His; SEQ ID NO:13). Determinations listed in the table were carried out with substrates at 0.2 mM concentration in the PSA assay buffer (50 mM Tris/0.1M NaCl pH 7.8). The entry “UD” stands for “undetectable” and means that at most, 0.1 pmole of substrate cleavage per minute per 200 pmole protease took place. Asterisks represent experiments not performed. Abbreviations are as follows: PSA (prostate specific antigen), Chymo (chymotrypsin), Urokin (urokinase), TPA (tissue plasminogen activator), Thromb (thrombin), Kallik (human kallikrein, hK1).

thrombin = target: T2, thrombin (Homo sapiens, UniProt P00734); experiment: as above; assay type: biochemical; settings: 0.2 mM substrate, PSA assay buffer pH 7.8
T2 construct: purchased Sigma Chemical Co
Method: as §1, §2, §3, §4

urokinase = target: T3, urokinase (Homo sapiens, UniProt P00749); experiment: as above; assay type: biochemical; settings: 0.2 mM substrate, PSA assay buffer pH 7.8
T3 construct: purchased Calbiochem
Method: as §1, §2, §3, §4

[1] = target: T4, tissue plasminogen activator (TPA) (Homo sapiens, UniProt P00750); experiment: as above; assay type: biochemical; settings: 0.2 mM substrate, PSA assay buffer pH 7.8
T4 construct: purchased Calbiochem
T4 sequence (P00750 36-562, species assumed): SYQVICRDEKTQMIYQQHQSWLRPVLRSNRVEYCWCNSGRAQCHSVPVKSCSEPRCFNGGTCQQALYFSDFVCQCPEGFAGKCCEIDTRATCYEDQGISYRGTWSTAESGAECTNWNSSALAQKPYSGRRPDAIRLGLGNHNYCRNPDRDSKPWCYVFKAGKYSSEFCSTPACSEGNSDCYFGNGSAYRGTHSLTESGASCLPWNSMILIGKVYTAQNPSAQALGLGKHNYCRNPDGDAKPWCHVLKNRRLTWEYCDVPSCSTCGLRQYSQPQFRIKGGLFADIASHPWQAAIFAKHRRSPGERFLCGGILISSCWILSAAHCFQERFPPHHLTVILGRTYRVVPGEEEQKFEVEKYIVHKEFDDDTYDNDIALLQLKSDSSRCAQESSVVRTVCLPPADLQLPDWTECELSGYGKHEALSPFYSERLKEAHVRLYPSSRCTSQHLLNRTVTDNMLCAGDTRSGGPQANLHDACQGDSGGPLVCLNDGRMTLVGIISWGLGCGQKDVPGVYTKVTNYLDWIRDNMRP
Method: as §1, §2, §3, §4

Elastase = experiment: as above; assay type: biochemical; settings: 0.2 mM substrate, PSA assay buffer pH 7.8
Method: as §1, §2, §3, §4

human kallikrein, hK1 = experiment: as above; assay type: biochemical; settings: 0.2 mM substrate, PSA assay buffer pH 7.8
Method: as §1, §2, §3, §4

chymotrypsin = target: T5, chymotrypsin (Bos taurus, UniProt P00766); experiment: as above; assay type: biochemical; settings: 0.2 mM substrate, PSA assay buffer pH 7.8
T5 construct: purchased Sigma Chemical Co
Method: as §1, §2, §3, §4

Trypsin = experiment: as above; assay type: biochemical; settings: 0.2 mM substrate, PSA assay buffer pH 7.8
Method: as §1, §2, §3, §4

[2] = target: T6, PSA (prostate specific antigen) (Homo sapiens, UniProt P07288); experiment: Cleavage of AMC-labelled peptide substrates by purified PSA (fluorescence of released AMC; Lineweaver-Burke kinetics); assay type: biochemical; settings: for picomoles of peptide cleaved/min/200 picomoles protease: PSA: pH 7.8, SKLQ, KLQ, LQ in 1.4% acetonitrile/buffer, Q-AMC in 0.2% formic acid/buffer; for Kcat / Km: PSA substrate, PSA assay buffer pH 7.8, Lineweaver-Burke
T6 construct: PSA was purified from human seminal plasma; from tissue; host or cells: human seminal plasma
T6 sequence (P07288 25-261): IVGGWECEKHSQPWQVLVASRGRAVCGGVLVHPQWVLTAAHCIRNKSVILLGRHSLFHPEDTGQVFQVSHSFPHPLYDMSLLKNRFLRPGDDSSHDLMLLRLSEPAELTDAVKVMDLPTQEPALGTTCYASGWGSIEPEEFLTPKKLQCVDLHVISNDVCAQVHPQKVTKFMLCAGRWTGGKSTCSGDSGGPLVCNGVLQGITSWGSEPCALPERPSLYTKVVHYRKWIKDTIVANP
Method: as §1, §2, §3, §4
The data in Table 2 are the results of kinetic experiments with the peptide substrates used in Example 1. Experimental details are found in Example 1.
The amino acid sequences expressed in one letter amino acid code represent the following amino acid sequences in the three letter amino acid code: EHSSKLQ (Glu-His-Ser-Ser-Lys-Leu-Gln; SEQ ID NO:10), HSSKLQ (His-Ser-Ser-Lys-Leu-Gln; SEQ ID NO:7), SKLQ (Ser-Lys-Leu-Gln; SEQ ID NO:1), and ATKSKQH (Ala-Thr-Lys-Ser-Lys-Gln-His; SEQ ID NO:13). […]

[3] = Stability of PSA substrates in serum (AMC release); assay type: in vitro ADME; settings: 0.2 mM substrate
From the text: as §2, §3
Because the prodrug can be given systemically via the blood, it is useful to determine the stability of the substrates in sera from a variety of species. The substrates and experimental details are found as described in Example 1.
The amino acid sequences expressed in one letter amino acid code represent the following amino acid sequences in the three letter amino acid code: EHSSKLQ (Glu-His-Ser-Ser-Lys-Leu-Gln; SEQ ID NO:10), QNKISYQ (Gln-Asn-Lys-Ile-Ser-Tyr-Gln; SEQ ID NO:11), ENKISYQ (Glu-Asn-Lys-Ile-Ser-Tyr-Gln; SEQ ID NO:12) and ATKSKQH (Ala-Thr-Lys-Ser-Lys-Gln-His; SEQ ID NO:13). Determinations listed in the table were carried out with substrates at 0.2 mM concentration in the PSA assay buffer (50 mM Tris/0.1M NaCl pH 7.8). AMC is 7-amino-4-methylcoumarin. The human serum used was 100% for each assay. The entry “UD” stands for “undetectable”, and means that not more than 0.01 picomole of substrate per minute was cleaved.

porcine liver esterase = experiment: PSA substrate cleavage by purified intracellular protease; assay type: biochemical; settings: 0.2 mM substrate, pH 7.8; SKLQ, KLQ, LQ in 1.4% acetonitrile/buffer, Q-AMC in 0.2% formic acid/buffer
Method: as §3
(§5) A family of peptide substrates based upon the EHSSKLQ (SEQ ID NO:10) sequence was assayed for activity for the intracellular proteases, and the results given in Table 4.
(§6) The amino acid sequences expressed in one letter amino acid code represent the following amino acid sequences in the three letter amino acid code: EHSSKLQ (Glu-His-Ser-Ser-Lys-Leu-Gln; SEQ ID NO:10), The shorter sequences are formed by deleting amino acids from the amino terminal side of the sequence. Determinations listed in the table were carried out with substrates at 0.2 mM concentration in the PSA assay buffer (50 mM Tris/0.1M NaCl pH 7.8), except SKLQ (SEQ ID NO:1), KLQ and LQ, which were carried out in 1.4% acetonitrile/buffer and Q-AMC which was carried out in 0.2% formic acid/buffer, at pH 7.8. The entry “UD” stands for “undetectable” and means that at most, 0.1 pmole of substrate cleavage per minute per 200 pmole protease took place. Asterisks represent experiments not performed. Abbreviations are as follows: PSA (prostate specific antigen), Cath B, C, D (Cathepsins, B, C, D), Esterase (porcine liver esterase).

Cathepsin D = target: T7, Cathepsin D (Homo sapiens, UniProt P07339); experiment: as above; assay type: biochemical; settings: 0.2 mM substrate, pH 7.8; SKLQ, KLQ, LQ in 1.4% acetonitrile/buffer, Q-AMC in 0.2% formic acid/buffer
T7 construct: purchased Sigma Chemical Co
T7 sequence (P07339 65-412): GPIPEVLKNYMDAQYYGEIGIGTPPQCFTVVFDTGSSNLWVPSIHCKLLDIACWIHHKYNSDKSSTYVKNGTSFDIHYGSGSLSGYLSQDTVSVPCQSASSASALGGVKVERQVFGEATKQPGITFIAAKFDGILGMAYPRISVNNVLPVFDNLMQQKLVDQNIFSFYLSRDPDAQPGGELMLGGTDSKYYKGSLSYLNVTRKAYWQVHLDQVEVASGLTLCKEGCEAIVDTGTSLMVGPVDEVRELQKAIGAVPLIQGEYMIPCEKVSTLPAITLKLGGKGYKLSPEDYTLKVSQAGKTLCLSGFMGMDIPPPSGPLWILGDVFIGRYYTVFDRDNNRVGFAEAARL
Method: as §3, §5, §6

Cathepsin B = target: T8, Cathepsin B (Homo sapiens, UniProt P07858); experiment: as above; assay type: biochemical; settings: 0.2 mM substrate, pH 7.8; SKLQ, KLQ, LQ in 1.4% acetonitrile/buffer, Q-AMC in 0.2% formic acid/buffer
T8 construct: purchased Sigma Chemical Co
Method: as §3, §5, §6

Cathepsin C = target: T9, Cathepsin C (Homo sapiens, UniProt P53634); experiment: as above; assay type: biochemical; settings: 0.2 mM substrate, pH 7.8; SKLQ, KLQ, LQ in 1.4% acetonitrile/buffer, Q-AMC in 0.2% formic acid/buffer
T9 construct: purchased Sigma Chemical Co
T9 sequence (P53634 25-463): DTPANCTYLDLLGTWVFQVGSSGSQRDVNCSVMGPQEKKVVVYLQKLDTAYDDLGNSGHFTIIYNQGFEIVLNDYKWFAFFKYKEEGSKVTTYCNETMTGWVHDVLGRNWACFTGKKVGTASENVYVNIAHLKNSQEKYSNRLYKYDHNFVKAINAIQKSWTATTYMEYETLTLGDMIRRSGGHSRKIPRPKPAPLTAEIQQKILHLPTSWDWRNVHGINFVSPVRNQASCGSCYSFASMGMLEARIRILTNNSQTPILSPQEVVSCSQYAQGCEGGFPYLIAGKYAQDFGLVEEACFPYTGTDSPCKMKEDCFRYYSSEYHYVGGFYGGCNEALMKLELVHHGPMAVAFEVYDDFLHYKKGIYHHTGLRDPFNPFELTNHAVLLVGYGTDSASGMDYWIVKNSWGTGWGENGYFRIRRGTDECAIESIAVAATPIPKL
Method: as §3, §5, §6

## Cc1cc(=O)oc2cc(NC(=O)[C@H](CCC(N)=O)NC(=O)[C@H](CC(C)C)NC(=O)[C@H](CCCCN)NC(=O)[C@H](CO)NC(=O)[C@H](CO)NC(=O)[C@H](Cc3c[nH]cn3)NC(=O)[C@H](CCC(=O)O)NC(=O)N3CCOCC3)ccc12 [EHSSKLQ, Glu-His-Ser-Ser-Lys-Leu-Gln] ({Morpholide-CO}-EHSSKLQ-{AMC})
Plasmin
  Picomoles of substrate cleaved/minute/200 pmoles of indicated protease: Plasmin: UD (at most, 0.1 pmole of substrate cleavage per minute per 200 pmole protease took place)
thrombin
  Picomoles of substrate cleaved/minute/200 pmoles of indicated protease: Thromb: UD (at most, 0.1 pmole of substrate cleavage per minute per 200 pmole protease took place)
urokinase
  Picomoles of substrate cleaved/minute/200 pmoles of indicated protease: Urokin: UD (at most, 0.1 pmole of substrate cleavage per minute per 200 pmole protease took place)
[1]
  Picomoles of substrate cleaved/minute/200 pmoles of indicated protease: TPA: UD (at most, 0.1 pmole of substrate cleavage per minute per 200 pmole protease took place)
Elastase
  Picomoles of substrate cleaved/minute/200 pmoles of indicated protease: Elastase: UD (at most, 0.1 pmole of substrate cleavage per minute per 200 pmole protease took place)
Human kallikrein, hK1
  Picomoles of substrate cleaved/minute/200 pmoles of indicated protease: Kallik: UD (at most, 0.1 pmole of substrate cleavage per minute per 200 pmole protease took place)
chymotrypsin
  Picomoles of substrate cleaved/minute/200 pmoles of indicated protease: Chymo: UD (at most, 0.1 pmole of substrate cleavage per minute per 200 pmole protease took place)
Trypsin
  Picomoles of substrate cleaved/minute/200 pmoles of indicated protease: Trypsin: UD (at most, 0.1 pmole of substrate cleavage per minute per 200 pmole protease took place)
[2]; 0.2 mM substrate, PSA assay buffer pH 7.8, room temperature
  Picomoles of substrate cleaved/minute/200 pmoles of indicated protease: PSA: 31.6 picomoles/minute/200 pmoles pr
[2]; 0.2 mM substrate
  picomoles of peptide cleaved/min/200 picomoles protease: PSA: 31.6 picomoles/min/200 picomoles pr
[2]
  Kcat: 0.02 s⁻¹
  Km: 1160 µM
[3]
  picomles AMC released/minute: Calf: UD (not more than 0.01 picomole of substrate per minute was cleaved)
  picomles AMC released/minute: Fetal Calf: UD (not more than 0.01 picomole of substrate per minute was cleaved)
  picomles AMC released/minute: Goat: UD (not more than 0.01 picomole of substrate per minute was cleaved)
  picomles AMC released/minute: Mouse: 2.17 picomoles/minute
  picomles AMC released/minute: Rat: 0.06 picomoles/minute
[3]; human serum 100%
  picomles AMC released/minute: Human: UD (not more than 0.01 picomole of substrate per minute was cleaved)
Porcine liver esterase
  picomoles of peptide cleaved/min/200 picomoles protease: Esterase: UD (at most, 0.1 pmole of substrate cleavage per minute per 200 pmole protease took place)
Cathepsin D
  picomoles of peptide cleaved/min/200 picomoles protease: Cath D: 2.2 picomoles/min/200 picomoles pr
Cathepsin B
  picomoles of peptide cleaved/min/200 picomoles protease: Cath B: 4.3 picomoles/min/200 picomoles pr
Cathepsin C
  picomoles of peptide cleaved/min/200 picomoles protease: Cath C: UD (at most, 0.1 pmole of substrate cleavage per minute per 200 pmole protease took place)

## Cc1cc(=O)oc2cc(NC(=O)[C@H](CCC(N)=O)NC(=O)[C@H](CC(C)C)NC(=O)[C@H](CCCCN)NC(=O)[C@H](CO)NC(=O)N3CCOCC3)ccc12 [SKLQ, Ser-Lys-Leu-Gln] ({Morpholide-CO}-SKLQ-{AMC})
[2]; 0.2 mM substrate
  picomoles of peptide cleaved/min/200 picomoles protease: PSA: 29.6 picomoles/min/200 picomoles pr
[2]
  Kcat: 0.020 s⁻¹
  Km: 813 µM
Porcine liver esterase
  picomoles of peptide cleaved/min/200 picomoles protease: Esterase: UD (at most, 0.1 pmole of substrate cleavage per minute per 200 pmole protease took place)
Cathepsin D
  picomoles of peptide cleaved/min/200 picomoles protease: Cath D: 6.4 picomoles/min/200 picomoles pr
Cathepsin B
  picomoles of peptide cleaved/min/200 picomoles protease: Cath B: 31.2 picomoles/min/200 picomoles pr
Cathepsin C
  picomoles of peptide cleaved/min/200 picomoles protease: Cath C: UD (at most, 0.1 pmole of substrate cleavage per minute per 200 pmole protease took place)
